Data reported in paper PMC5122889, “Sigma-1 Receptor Agonism Promotes Mechanical Allodynia After Priming the Nociceptive System with Capsaicin” (Scientific Reports, 2016).
Where a name gives a salt, the structure may show the parent alone. Read-outs that look alike come from different tables or passages of the source.

Assays:
[1] = in vitro; design: metabolic stability in human liver microsomes with NADPH-regenerating system, parent compound by UHPLC-MS/MS; conditions: human liver microsomes
Description: (§1) Incubation of the test compounds in mouse or human liver microsomes (Xenotech, Lenexa, KS, USA) was done with a previously described method[55] with modifications. We tested the metabolic stability of PRE-084 and PGB, the latter of which was used as a control because of its poor hepatic metabolism. Briefly, the drugs were incubated in 96-well plates at a concentration of 1 μM and at 37 °C during 1 h under standard incubation conditions: sodium-potassium phosphate buffer (50 mM, pH 7.4), MgCl2 (3 mM), the NADPH-regenerating system and cytochrome P450 content (0.3 nmol/mL). Aliquots of the reaction mixture were obtained at 0, 10, 20, 40 and 60 min with an equal volume of cold acetonitrile. The assay was done in a robotic [compound left out] handling system (Freedom Evo Tecan, Männedorf, Switzerland). Upon centrifugation of the resulting mixture, supernatants were analyzed with a generic ultra-high performance [compound left out] chromatography–tandem mass spectrometry method. For the in vitro metabolic stability in liver microsomes, Ln-linear plots of the percentage of compound remaining based on chromatographic peak area versus time were generated, and the slope was calculated by linear fitting of the curve. The in vitro metabolic t1/2 was estimated with the equation 0.693/k where k is the biotransformation rate constant and corresponds to the slope of the ln-linear curve. Liver microsome Cl int was calculated with the equation [drawing 1]

[2] = target: T1, sigma-1 receptor (Mus musculus, UniProt O55242); test: [3H](+)-pentazocine competition radioligand binding in mouse brain membranes
T1 construct: gene Sigmar1; native receptor in wild-type mouse brain crude synaptosomal membranes (P2 fraction)

[3] = in vitro; design: metabolic stability in mouse liver microsomes with NADPH-regenerating system, parent compound by UHPLC-MS/MS; conditions: mouse liver microsomes
Description: as §1

[4] = in vitro; design: metabolic stability in liver microsomes with NADPH, UHPLC-MS/MS quantitation of parent compound; conditions: for remaining at 1 h, 1 µM: pH 7.4, liver microsomes, read-out: % parent compound remaining at 1 h; for half-life at 1 µM / microsomal CLint at 1 µM: pH 7.4, liver microsomes; for microsomal CLint at 1 µM: read-out: Cl int (µL/min/mg protein)
Description: as §1

T1 sequence (O55242 whole entry): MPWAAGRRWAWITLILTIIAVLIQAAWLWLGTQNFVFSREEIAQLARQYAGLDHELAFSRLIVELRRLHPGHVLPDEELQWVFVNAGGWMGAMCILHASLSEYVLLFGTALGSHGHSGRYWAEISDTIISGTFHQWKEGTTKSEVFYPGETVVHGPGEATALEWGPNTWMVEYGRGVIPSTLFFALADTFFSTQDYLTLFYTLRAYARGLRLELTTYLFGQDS

Row | Structure (SMILES) | remaining at 1 h, 1 µM ([1]; pH 7.4, liver microsomes, read-out: % parent compound remaining at 1 h (human)) [%] | microsomal CLint at 1 µM ([1]; pH 7.4, liver microsomes, read-out: Cl int (human)) [µL/min/mg] | half-life at 1 µM ([1]; pH 7.4, liver microsomes, read-out: t1/2 (human)) [h] | IC50 [2] [nM] | remaining at 1 h, 1 µM ([3]; pH 7.4, liver microsomes, read-out: % parent compound remaining at 1 h (mouse)) [%] | microsomal CLint at 1 µM ([3]; pH 7.4, liver microsomes, read-out: Cl int (mouse)) [µL/min/mg] | half-life at 1 µM ([3]; pH 7.4, liver microsomes, read-out: t1/2 (mouse)) [min] | remaining at 1 h, 1 µM ([4]; human liver microsomes) [%] | remaining at 1 h, 1 µM ([4]; mouse liver microsomes) [%] | half-life at 1 µM ([4]; human liver microsomes) [h] | microsomal CLint at 1 µM ([4]; human liver microsomes) [µL/min/mg] | half-life at 1 µM ([4]; mouse liver microsomes) [h] | microsomal CLint at 1 µM ([4]; mouse liver microsomes) [µL/min/mg]
1 | O=C(OCCN1CCOCC1)C1(c2ccccc2)CCCCC1 [PRE, 2-(4-morpholinethyl)1-phenylcyclohexanecarboxylate) hydrochloride] | 4 ± 0.58 | 103 ± 5 | 0.217 ± 0.00967 | 188 ± 18.8 | 0 | 949 ± 203 | 3 ± 0.67 | – | – | – | – | – | –
2 | CC(C)C[C@H](CN)CC(=O)O [Pregabalin] | – | – | – | – | – | – | – | 95 ± 2.96 | 97 ± 2.67 | 17.9 ± 10.8 | 2.3 ± 0.94 | 10 ± 3.03 | 4.5 ± 1.2
